Source: patent US12302908B2, “Insect neuropeptides 4” (Solasta Bio Limited, priority 2023, dated 2025)

Key:
Plutella xylostella [1] = assay: Leaf dip assay 2 (IRAC susceptibility test method 019), mortality; type: in vivo; conditions: unformulated peptide at 1×10^−4 M; dipped leaf disc on agar; after 96 hours; FIG. 6
Description: The assay was carried out based on IRAC susceptibility test method 019 (irac-online.org/methods/aphids-adultnymphs/). Fill a small 4 cm wide 3 cm high dish with a 1% agar treatment solution of the active chemical or control (ensuring 1 cm gap between the agar and the lid) and leave to set. Dip a 2.5 cm leaf disc into 3 ml of treatment solution allowing the treatment to coat the leaf. Leave the disc to dry for 1 hour and place onto the set agar. Place insects (Plutella xylostella) onto each of the leaf discs. Each unit is sealed with a close-fitting, ventilated lid. Place the agar dishes in a small plastic tray lined with moist tissue paper and ensure the water trays in the bottom of the incubator are filled with clean water and place within the incubator. An assessment of mortality is made at 72, 96 and 120 hours. Leaf dip assays were performed with SB—P-81, and compared to a negative control vehicle and a current commercial insecticide Chlorantraniliprole. The activity of SB—P-81 is shown in FIG. 6; SB—P-81 has good activity whilst being eco-friendly and targeted to specific pests unlike broad spectrum chemical insecticides such as Chlorantraniliprole.

Plutella xylostella [2] = assay: Leaf dip assay 1 (IRAC susceptibility test method 018, performed by FERA), mortality; type: in vivo; conditions: unformulated peptide at 2×10^−4 M; 2nd/3rd instar larvae on dipped Chinese cabbage leaf discs; mortality assessed after 120 hours; FIG. 4
Description: The assay was carried out based on IRAC susceptibility test method 018 by a contract research organization, FERA Science Ltd. Test insects Larvae (2nd/3rd instar) were sourced from a laboratory culture of P. xylostella. The culture has been maintained in a controlled environment (CE) room with conditions of 25° C. and 16:8 lighting regime on Chinese cabbage plants. Chinese cabbage leaves were used in the bioassays. A CE room set at 25° C. and 60% r.h. with a 16 hour light: 8 hours dark lighting regime, was used. Leaf discs (approximately 35 mm in diameter) were cut from fully expanded Chinese cabbage leaves. Each leaf disc was dipped in a separate peptide solution for 10 seconds with gentle agitation and placed on a damp filter paper (underside surface uppermost). There were ten replicates for each treatment and control, with five leaf discs per replicate. The treated discs were then put onto damp filter paper in the base of a Petri dishes (90 mm in diameter, 15 mm high) (underside surface uppermost). Five larvae were then transferred onto the treated leaf discs. The dishes were placed in the CE room and mortality was assessed after 120 hours. Leaf dip assays were performed with SB—P-81, and compared to a negative control vehicle and a current commercial insecticide Gazelle SG (shown as Acetamiprid). […]

## [Hy]-GGSMTFSPRL-[NH2] (H-GGSMTFSPRL-NH2) [SB—P-81, pyrokinin peptide according to the invention]
Plutella xylostella [1]
  activity against Plutella xylostella (mortality), leaf dip assay 2: good activity
Plutella xylostella [2]
  activity against Plutella xylostella (mortality), leaf dip assay 1: good activity
